24 molecules from patent publication US20260092074A1, “Annelated Pyridines as Steroidogenesis Inhibitors, Preparation Method and Use Thereof” (Guangzhou Vinnocent Pharmaceutical Limited, priority 2022, published 2026) can be followed below.

The target of one assay is T1, human CYP11B2 (Homo sapiens, UniProt P19099).
T1 construct: expressed in transfected cells
T1 sequence (P19099 25-503): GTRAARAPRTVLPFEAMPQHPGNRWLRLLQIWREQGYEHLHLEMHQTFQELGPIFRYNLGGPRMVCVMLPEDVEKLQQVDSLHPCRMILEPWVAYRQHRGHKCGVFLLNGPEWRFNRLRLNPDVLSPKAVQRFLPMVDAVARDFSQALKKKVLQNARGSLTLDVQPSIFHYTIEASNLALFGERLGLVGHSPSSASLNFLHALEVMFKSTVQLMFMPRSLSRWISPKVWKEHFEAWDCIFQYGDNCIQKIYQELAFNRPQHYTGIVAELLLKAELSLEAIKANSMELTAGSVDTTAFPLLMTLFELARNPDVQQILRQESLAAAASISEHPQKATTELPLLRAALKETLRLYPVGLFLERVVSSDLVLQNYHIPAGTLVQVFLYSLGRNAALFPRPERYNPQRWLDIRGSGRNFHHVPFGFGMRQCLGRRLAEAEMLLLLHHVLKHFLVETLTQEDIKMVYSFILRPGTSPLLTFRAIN
Nature of the assay: Inhibition of hCYP11B2 in transfected V79 cells. Type of assay: cell-based. The settings on record: hamster V79 cells expressing human CYP11B2; substrate 11-deoxycorticosterone 200 nM. The essentials: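 Hamster V79 cells stably co-expressing human CYP11B2 and rat NADPH-P450 reductase were pre-incubated with compounds for 2 hours, then given 200 nM 11-deoxycorticosterone for 30 minutes before ethyl acetate quench. Substrate and product were quantified by LC-MS/MS or HPLC at 260 nm, and IC50 was derived from percent inhibition.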

A further assay concerns the target T2, human CYP11B1 (Homo sapiens, UniProt P15538).
T2 construct: expressed in transfected cells
T2 sequence (P15538 25-503): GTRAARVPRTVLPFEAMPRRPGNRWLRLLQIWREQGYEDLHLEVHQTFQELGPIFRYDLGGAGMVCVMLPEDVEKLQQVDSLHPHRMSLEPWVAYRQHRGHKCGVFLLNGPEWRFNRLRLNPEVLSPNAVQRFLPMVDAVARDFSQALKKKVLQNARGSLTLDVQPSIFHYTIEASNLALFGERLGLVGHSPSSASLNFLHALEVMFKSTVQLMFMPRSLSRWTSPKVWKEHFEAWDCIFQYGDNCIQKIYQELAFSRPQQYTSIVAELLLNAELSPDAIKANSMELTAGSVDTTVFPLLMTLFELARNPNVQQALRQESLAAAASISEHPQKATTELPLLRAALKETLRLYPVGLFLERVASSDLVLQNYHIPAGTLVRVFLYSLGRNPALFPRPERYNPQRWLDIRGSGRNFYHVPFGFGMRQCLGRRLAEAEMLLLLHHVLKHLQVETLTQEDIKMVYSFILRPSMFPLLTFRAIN
The assay is described as follows: Inhibition of hCYP11B1 in transfected V79 cells. Type of assay: cell-based. The settings on record: hamster V79 cells expressing human CYP11B1; substrate 11-deoxycortisol 200 nM. The gist of the method: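 V79 hamster cells stably expressing human CYP11B1 and rat NADPH-P450 reductase were preincubated with compounds for 2 h. 11-Deoxycortisol (200 nM) was then added as substrate for 30 min before ethyl acetate quench. Substrate and product were quantified by LC-MS/MS or HPLC at 260 nm, and IC50 was derived from percent inhibition.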

Consider `N#Cc1ccc(S(=O)(=O)N2CCSc3c(-c4cc5cc(C#N)ccc5o4)cncc32)cc1` [S42, 2-(4-((4-Cyanophenyl)sulfonyl)-3,4-dihydro-2H-pyrido[4,3-b][1,4]thiazin-8-yl)benzofuran-5-carbonitrile], for which the half-maximal inhibitory concentration (IC50) (in general, the concentration at which inhibition is half-maximal) at human CYP11B2 turned out to be 0.3 nM; against human CYP11B1, 24 nM.
On to `N#Cc1ccc(S(=O)(=O)N2CCSc3c(-c4cc5ccccc5s4)cncc32)cc1` [S43, 4-((8-(Benzo[b]thiophen-2-yl)-2,3-dihydro-4H-pyrido[4,3-b][1,4]thiazin-4-yl)sulfonyl)benzonitrile], for which the IC50 on human CYP11B2 turned out to be 6.5 nM; at human CYP11B1 it was 621 nM.
Regarding `N#Cc1ccc(S(=O)(=O)N2CCSc3c(-c4ccc5occc5c4)cncc32)cc1` [S44, 4-((8-(Benzofuran-5-yl)-2,3-dihydro-4H-pyrido[4,3-b][1,4]thiazin-4-yl)sulfonyl)benzonitrile], the results for the IC50 against human CYP11B2 and against human CYP11B1 were 46 nM and 782 nM, respectively.
In the case of `Cn1ncc2ccc(-c3cncc4c3SCCN4S(=O)(=O)c3ccc(C#N)cc3)cc21` [S45, 4-((8-(1-Methyl-1H-indazol-6-yl)-2,3-dihydro-4H-pyrido[4,3-b][1,4]thiazin-4-yl)sulfonyl) benzonitrile], the IC50 at human CYP11B2 was found to be 11.6 nM; against human CYP11B1, 1460 nM.
Turning to `N#Cc1ccc(S(=O)(=O)N2CCSc3c(-c4ccc5ncsc5c4)cncc32)cc1` [S46, 4-((8-(Benzo[d]thiazol-6-yl)-2,3-dihydro-4H-pyrido[4,3-b][1,4]thiazin-4-yl)sulfonyl)benzonitrile], the results for the IC50 against human CYP11B2 and on human CYP11B1 were 2.8 nM and 322 nM, respectively.
Turning to `N#Cc1ccc(S(=O)(=O)N2CCSc3c(-c4ccc5[nH]ncc5c4)cncc32)cc1` [S48, 4-((8-(1H-Indazol-5-yl)-2,3-dihydro-4H-pyrido[4,3-b][1,4]thiazin-4-yl)sulfonyl)benzonitrile], the results for the IC50 against human CYP11B2 and on human CYP11B1 were 25 nM and 14 nM, respectively.
As for `N#Cc1ccc(S(=O)(=O)N2CCSc3c(-c4ccc5nc[nH]c5c4)cncc32)cc1` [S49, 4-((8-(1H-Benzo[d]imidazol-6-yl)-2,3-dihydro-4H-pyrido[4,3-b][1,4]thiazin-4-yl)sulfonyl)benzonitrile], the values for the half-inhibitory concentration (IC50) against human CYP11B2 and at human CYP11B1 were 27 nM and 7 nM, respectively.
For `N#Cc1ccc(S(=O)(=O)N2CCSc3c(-c4ccn5ccnc5c4)cncc32)cc1` [S50, 4-((8-(Imidazo[1,2-a]pyridin-7-yl)-2,3-dihydro-4H-pyrido[4,3-b][1,4]thiazin-4-yl)sulfonyl)benzonitrile] the same measures were 52 nM and 298 nM.
Take `N#Cc1ccc(S(=O)(=O)N2CCSc3c(-c4ccc5c(c4)CC(=O)N5)cncc32)cc1` [S51, 4-((8-(2-Oxoindolin-5-yl)-2,3-dihydro-4H-pyrido[4,3-b][1,4]thiazin-4-yl)sulfonyl)benzonitrile]: the IC50 against human CYP11B2 stood at 10.3 nM; against human CYP11B1, 1970 nM.
For `CN1C(=O)CCc2cc(-c3cncc4c3SCCN4S(=O)(=O)c3ccc(C#N)cc3)cc(F)c21` [S52, 4-((8-(8-Fluoro-1-methyl-2-oxo-1,2,3,4-tetrahydroquinolin-6-yl)-2,3-dihydro-4H-pyrido[4,3-b][1,4]thiazin-4-yl)sulfonyl)benzonitrile], in that order: 32 nM and 697 nM.
For the molecule `COc1ccc(S(=O)(=O)N2CCSc3c(-c4cc5cc(Cl)ccc5o4)cncc32)cn1` [S53, 8-(5-Chlorobenzofuran-2-yl)-4-((6-methoxypyridin-3-yl)sulfonyl)-3,4-dihydro-2H-pyrido[4,3-b][1,4]thiazine], the IC50 is 0.9 nM on human CYP11B2 and 72 nM at human CYP11B1.
For `O=S(=O)(c1ccc(O)nc1)N1CCSc2c(-c3cc4cc(Cl)ccc4o3)cncc21` [S54, 5-((8-(5-Chlorobenzofuran-2-yl)-2,3-dihydro-4H-pyrido[4,3-b][1,4]thiazin-4-yl)sulfonyl) pyridin-2-ol], in that order: 16 nM and 549 nM.
Turning to `Cn1cc(S(=O)(=O)N2CCSc3c(-c4cc5cc(Cl)ccc5o4)cncc32)cn1` [S55, 8-(5-Chlorobenzofuran-2-yl)-4-((1-methyl-1H-pyrazol-4-yl)sulfonyl)-3,4-dihydro-2H-pyrido[4,3-b][1,4]thiazine], the IC50 at human CYP11B2 amounted to 0.2 nM; on human CYP11B1, 10.6 nM.
For `Cn1ccc(S(=O)(=O)N2CCSc3c(-c4cc5cc(Cl)ccc5o4)cncc32)n1` [S56, 8-(5-Chlorobenzofuran-2-yl)-4-((1-methyl-1H-pyrazol-3-yl)sulfonyl)-3,4-dihydro-2H-pyrido[4,3-b][1,4]thiazine], in that order: 0.5 nM and 41 nM.
In the case of `CC(=O)Nc1nc(C)c(S(=O)(=O)N2CCSc3c(-c4cc5cc(Cl)ccc5o4)cncc32)s1` [S57, N-(5-((8-(5-Chlorobenzofuran-2-yl)-2,3-dihydro-4H-pyrido[4,3-b][1,4]thiazin-4-yl)sulfonyl)-4-methylthiazol-2-yl)acetamide], the IC50 against human CYP11B2 was 3.9 nM; against human CYP11B1, 66 nM.
For `CC(=O)N1CCc2cc(S(=O)(=O)N3CCSc4c(-c5cc6cc(Cl)ccc6o5)cncc43)ccc21` [S58, 1-(5-((8-(5-Chlorobenzofuran-2-yl)-2,3-dihydro-4H-pyrido[4,3-b][1,4]thiazin-4-yl)sulfonyl)indolin-1-yl)ethan-1-one] the same measures were 2 nM and 27 nM.
On to `O=C1COc2ccc(S(=O)(=O)N3CCSc4c(-c5cc6cc(Cl)ccc6o5)cncc43)cc2N1` [S59, 6-((8-(5-Chlorobenzofuran-2-yl)-2,3-dihydro-4H-pyrido[4,3-b][1,4]thiazin-4-yl)sulfonyl)-2H-benzo[b][1,4]oxazin-3 (4H)-one], for which the IC50 amounted to 0.5 nM on human CYP11B2 and 48 nM against human CYP11B1.
As for `O=S(=O)(c1ccc(Cl)s1)N1CCSc2c(-c3cc4cc(Cl)ccc4o3)cncc21` [S60, 8-(5-Chlorobenzofuran-2-yl)-4-((5-chlorothiophen-2-yl)sulfonyl)-3,4-dihydro-2H-pyrido-[4,3-b][1,4]thiazine], the IC50 stood at 0.7 nM on human CYP11B2 and 54 nM against human CYP11B1.
On to `O=S(=O)(C1CCNCC1)N1CCSc2c(-c3cc4cc(Cl)ccc4o3)cncc21` [S61, 8-(5-Chlorobenzofuran-2-yl)-4-(piperidin-4-ylsulfonyl)-3,4-dihydro-2H-pyrido[4,3-b][1, 4]thiazine], for which the IC50 against human CYP11B2 was found to be 21.7 nM; against human CYP11B1 it was 688 nM.
With `O=S(=O)(C1CNC1)N1CCSc2c(-c3cc4cc(Cl)ccc4o3)cncc21` [S62, 4-(Azetidin-3-ylsulfonyl)-8-(5-chlorobenzofuran-2-yl)-3,4-dihydro-2H-pyrido[4,3-b][1,4]thiazine], the figures for the IC50 against human CYP11B2 and on human CYP11B1 were 7.2 nM and 516 nM, respectively.
As to `N#CN1CCC(S(=O)(=O)N2CCSc3c(-c4cc5cc(Cl)ccc5o4)cncc32)CC1` [S63, 4-((8-(5-Chlorobenzofuran-2-yl)-2,3-dihydro-4H-pyrido[4,3-b][1,4]thiazin-4-yl)sulfonyl) piperidine-1-carbonitrile], the IC50 amounted to 10 nM on human CYP11B2 and 792 nM against human CYP11B1.
For the molecule `N#CN1CC(S(=O)(=O)N2CCSc3c(-c4cc5cc(Cl)ccc5o4)cncc32)C1` [S64, 3-((8-(5-Chlorobenzofuran-2-yl)-2,3-dihydro-4H-pyrido[4,3-b][1,4]thiazin-4-yl)sulfonyl) azetidine-1-carbonitrile], the figures for the IC50 against human CYP11B2 and against human CYP11B1 were 4.5 nM and 755 nM, respectively.
For `N#CC12CC(S(=O)(=O)N3CCSc4c(-c5cc6cc(Cl)ccc6o5)cncc43)(C1)C2` [S65, 3-((8-(5-Chlorobenzofuran-2-yl)-2,3-dihydro-4H-pyrido[4,3-b][1,4]thiazin-4-yl)sulfonyl)bicyclo[1.1.1]pentane-1-carbonitrile], in that order: 5 nM and 783 nM.
For `O=S(=O)(C1CC2(COC2)C1)N1CCSc2c(-c3cc4cc(Cl)ccc4o3)cncc21` [S66, 4-((2-Oxaspiro[3.3]heptan-6-yl)sulfonyl)-8-(5-chlorobenzofuran-2-yl)-3,4-dihydro-2H-pyrido[4,3-b][1,4]thiazine] the same measures were 3.8 nM and 587 nM.
